Experimental data as given in article PMC9475448, “What a difference a methylene makes: replacing Glu with Asp or Aad in the Lys-urea-Glu pharmacophore of PSMA-targeting radioligands to reduce kidney and salivary gland uptake” (Theranostics, 2022).

Assays:
LNCaP tumor-bearing mice [1] = assay: Radioligand therapy study in LNCaP tumor-bearing NRG mice; settings: 37 MBq injected
[2] = system: LNCaP tumor and major mouse organs/tissues; assay: Radiation dosimetry calculation with OLINDA software from biodistribution data; settings: 25-g mouse
From the text: The biodistribution data (available in the Supplemental Table s 5- 6) were used to determine the kinetics input values required by OLINDA. First, each of the values was decayed to its corresponding time point (the values on the table are shown at injection time). Then the different time-points of the uptake data (%IA/g) for each organ were fitted to both mono- exponential ( ) and bi-exponential ( ) functions using in-house software developed in Python. The best fit was selected based on maximizing the coefficient of determination (R2) of the fit and minimizing the residuals. The areas under the curves were analytically calculated based on the parameters obtained from the best fit of each organ and this provided the kinetic input values required by OLINDA.
In the mouse case, the adrenals, blood, fat, and muscle are not modeled in the phantom. These organs were grouped together and included in what OLINDA calls the remainder of the body .
Lastly, the numbers of decays in the tumors were also calculated based on the biodistribution data of the mice and the values were inputted into the sphere model available in OLINDA.

LNCaP tumor-bearing mice [3] = assay: Ex vivo biodistribution of 177Lu-labeled ligands in LNCaP tumor-bearing NRG mice
LNCaP tumor-bearing mice [4] = assay: Longitudinal SPECT/CT imaging of 177Lu-labeled ligands; format: in vivo
Procedure: SPECT/CT imaging experiments were conducted using the MILabs (Utrecht, The Netherlands) U-SPECT-II/CT scanner. Each tumor-bearing mouse (n = 1-2 was injected with ∼37 MBq (50-250 pmol) of ^177Lu-labeled compound through a lateral caudal tail vein. The mice were imaged at 1, 4, 24, 72, and 120 h after injection. At each time point, a 5-min CT scan was conducted first for anatomical reference followed by 2 × 30-min static emission scans acquired in list mode.

[5] = 1 h post-injection, listed as [177Lu]Lu-PSMA-617
[6] = 4 h post-injection, listed as [177Lu]Lu-PSMA-617

## [^177Lu]Lu-PSMA-617
LNCaP tumor-bearing mice [1]
  Median survival: 63 days
[2]; source organ Brain
  Kinetics value: 6.64E-03 MBq-h/MBq
[2]; source organ Cortical bone
  Kinetics value: 8.28E-03 MBq-h/MBq
[2]; source organ Heart contents
  Kinetics value: 3.28E-03 MBq-h/MBq
[2]; source organ Kidneys
  Kinetics value: 8.23E-01 MBq-h/MBq
[2]; source organ Large intestine
  Kinetics value: 8.80E-03 MBq-h/MBq
[2]; source organ Liver
  Kinetics value: 6.38E-02 MBq-h/MBq
[2]; source organ Lungs
  Kinetics value: 4.85E-03 MBq-h/MBq
[2]; source organ Pancreas
  Kinetics value: 4.76E-03 MBq-h/MBq
[2]; source organ Remainder of the body
  Kinetics value: 1.68E-01 MBq-h/MBq
[2]; source organ Small intestine
  Kinetics value: 2.63E-02 MBq-h/MBq
[2]; source organ Spleen
  Kinetics value: 1.41E-02 MBq-h/MBq
[2]; source organ Stomach
  Kinetics value: 2.34E-04 MBq-h/MBq
[2]; source organ Testes
  Kinetics value: 4.23E-03 MBq-h/MBq
[2]; source organ Thyroid
  Kinetics value: 4.01E-04 MBq-h/MBq
[2]; source organ Urinary bladder contents
  Kinetics value: 8.04E-01 MBq-h/MBq
LNCaP tumor-bearing mice [3]; 1 h post-injection
  Adrenal glands uptake: 3.025 ± 0.939 %IA/g
  Blood uptake: 0.750 ± 0.119 %IA/g
  Blood:Salivary gland uptake ratio: < 1.0
  Bone uptake: 0.118 ± 0.026 %IA/g
  Brain uptake: 0.028 ± 0.007 %IA/g
  Fat uptake: 0.327 ± 0.069 %IA/g
  Heart uptake: 0.294 ± 0.045 %IA/g
  Intestines uptake: 0.275 ± 0.032 %IA/g
  Kidneys uptake: 79.7±11.7 %IA/g
  Lacrimal glands uptake: 0.068 ± 0.022 %IA/g
  Liver uptake: 0.224 ± 0.030 %IA/g
  Lungs uptake: 1.377 ± 0.152 %IA/g
  Muscle uptake: 0.177 ± 0.032 %IA/g
  Pancreas uptake: 0.387 ± 0.074 %IA/g
  Salivary glands uptake: 1.78±0.38 %IA/g
  Spleen uptake: 3.666 ± 1.342 %IA/g
  Stomach uptake: 0.130 ± 0.054 %IA/g
  Testes uptake: 0.433 ± 0.068 %IA/g
  Thyroid uptake: 0.556 ± 0.073 %IA/g
  Tumor uptake: 16.5±2.46 %IA/g
  Tumor:Blood uptake ratio: 22.5 ± 4.07
  Tumor:Kidney uptake ratio: 0.21 ± 0.04
  Tumor:Muscle uptake ratio: 94.3 ± 12.8
  Tumor:Salivary gland uptake ratio: 9.81 ± 3.33
LNCaP tumor-bearing mice [3]; [5]
  Blood:Salivary gland uptake ratio: 0.44 ± 0.12
  Kidneys uptake: 79.67 ± 11.68 %IA/g
  Salivary glands uptake: 1.775 ± 0.381 %IA/g
  Tumor uptake: 16.48 ± 2.456 %IA/g
LNCaP tumor-bearing mice [3]; 4 h post-injection
  Adrenal glands uptake: 0.469 ± 0.527 %IA/g
  Blood uptake: 0.031 ± 0.017 %IA/g
  Blood:Salivary gland uptake ratio: 0.20 ± 0.06
  Bone uptake: 0.017 ± 0.007 %IA/g
  Brain uptake: 0.011 ± 0.001 %IA/g
  Fat uptake: 0.028 ± 0.011 %IA/g
  Heart uptake: 0.026 ± 0.006 %IA/g
  Intestines uptake: 0.135 ± 0.042 %IA/g
  Kidneys uptake: 13.1±9.60 %IA/g
  Lacrimal glands uptake: 0.079 ± 0.056 %IA/g
  Liver uptake: 0.056 ± 0.012 %IA/g
  Lungs uptake: 0.123 ± 0.052 %IA/g
  Muscle uptake: 0.020 ± 0.004 %IA/g
  Pancreas uptake: 0.031 ± 0.012 %IA/g
  Salivary glands uptake: 0.14±0.04 %IA/g
  Spleen uptake: 0.222 ± 0.117 %IA/g
  Stomach uptake: 0.029 ± 0.017 %IA/g
  Testes uptake: 0.055 ± 0.018 %IA/g
  Thyroid uptake: 0.065 ± 0.027 %IA/g
  Tumor uptake: 14.24 ± 1.804 %IA/g
  Tumor:Blood uptake ratio: 593 ± 338
  Tumor:Kidney uptake ratio: 1.58 ± 0.98
  Tumor:Muscle uptake ratio: 748 ± 180
  Tumor:Salivary gland uptake ratio: 105 ± 28.0
LNCaP tumor-bearing mice [3]; [6]
  Kidneys uptake: 13.06 ± 9.598 %IA/g
  Salivary glands uptake: 0.142 ± 0.039 %IA/g
LNCaP tumor-bearing mice [3]; 24 h post-injection
  Adrenal glands uptake: 0.032 ± 0.010 %IA/g
  Blood uptake: 0.004 ± 0.001 %IA/g
  Blood:Salivary gland uptake ratio: 0.10 ± 0.02
  Bone uptake: 0.009 ± 0.005 %IA/g
  Brain uptake: 0.010 ± 0.002 %IA/g
  Fat uptake: 0.009 ± 0.008 %IA/g
  Heart uptake: 0.009 ± 0.003 %IA/g
  Intestines uptake: 0.059 ± 0.039 %IA/g
  Kidneys uptake: 0.658 ± 0.159 %IA/g
  Lacrimal glands uptake: 0.050 ± 0.024 %IA/g
  Liver uptake: 0.043 ± 0.027 %IA/g
  Lungs uptake: 0.028 ± 0.005 %IA/g
  Muscle uptake: 0.005 ± 0.001 %IA/g
  Pancreas uptake: 0.008 ± 0.002 %IA/g
  Salivary glands uptake: 0.018 ± 0.003 %IA/g
  Spleen uptake: 0.039 ± 0.007 %IA/g
  Stomach uptake: 0.044 ± 0.011 %IA/g
  Testes uptake: 0.018 ± 0.003 %IA/g
  Tumor uptake: 13.18 ± 3.151 %IA/g
  Tumor:Blood uptake ratio: 4045 ± 1693
  Tumor:Kidney uptake ratio: 21.6 ± 8.83
  Tumor:Muscle uptake ratio: 2905 ± 453
  Tumor:Salivary gland uptake ratio: 371 ± 129
LNCaP tumor-bearing mice [3]; 72 h post-injection
  Adrenal glands uptake: 0.007 ± 0.004 %IA/g
  Blood uptake: 0.002 ± 0.001 %IA/g
  Blood:Salivary gland uptake ratio: 0.19 ± 0.08
  Bone uptake: 0.006 ± 0.003 %IA/g
  Brain uptake: 0.008 ± 0.002 %IA/g
  Fat uptake: 0.006 ± 0.012 %IA/g
  Heart uptake: 0.004 ± 0.001 %IA/g
  Intestines uptake: 0.062 ± 0.080 %IA/g
  Kidneys uptake: 0.181 ± 0.046 %IA/g
  Lacrimal glands uptake: 0.023 ± 0.009 %IA/g
  Liver uptake: 0.021 ± 0.004 %IA/g
  Lungs uptake: 0.011 ± 0.002 %IA/g
  Muscle uptake: 0.004 ± 0.004 %IA/g
  Pancreas uptake: 0.003 ± 0.001 %IA/g
  Salivary glands uptake: 0.012 ± 0.003 %IA/g
  Spleen uptake: 0.016 ± 0.005 %IA/g
  Stomach uptake: 0.096 ± 0.155 %IA/g
  Testes uptake: 0.014 ± 0.012 %IA/g
  Thyroid uptake: 0.009 ± 0.002 %IA/g
  Tumor uptake: 11.0±2.12 %IA/g
  Tumor:Blood uptake ratio: 5784 ± 1756
  Tumor:Kidney uptake ratio: 62.4 ± 11.1
  Tumor:Muscle uptake ratio: 4712 ± 3587
  Tumor:Salivary gland uptake ratio: 969 ± 241
LNCaP tumor-bearing mice [3]; 72 h post-injection, listed as [177Lu]Lu-PSMA-617
  Tumor uptake: 10.97 ± 2.122 %IA/g
LNCaP tumor-bearing mice [3]; 120 h post-injection
  Adrenal glands uptake: 0.005 ± 0.008 %IA/g
  Blood uptake: 0.002 ± 0.001 %IA/g
  Blood:Salivary gland uptake ratio: 0.42 ± 0.19
  Bone uptake: 0.003 ± 0.004 %IA/g
  Brain uptake: 0.007 ± 0.001 %IA/g
  Fat uptake: 0.002 ± 0.001 %IA/g
  Heart uptake: 0.002 ± 0.001 %IA/g
  Intestines uptake: 0.012 ± 0.011 %IA/g
  Kidneys uptake: 0.111 ± 0.054 %IA/g
  Lacrimal glands uptake: 0.021 ± 0.010 %IA/g
  Liver uptake: 0.016 ± 0.004 %IA/g
  Lungs uptake: 0.006 ± 0.001 %IA/g
  Muscle uptake: 0.002 ± 0.002 %IA/g
  Pancreas uptake: 0.001 ± 0.001 %IA/g
  Salivary glands uptake: 0.005 ± 0.002 %IA/g
  Spleen uptake: 0.013 ± 0.004 %IA/g
  Stomach uptake: 0.013 ± 0.013 %IA/g
  Testes uptake: 0.006 ± 0.002 %IA/g
  Thyroid uptake: 0.005 ± 0.001 %IA/g
  Tumor uptake: 12.3±5.52 %IA/g
  Tumor:Blood uptake ratio: 8895 ± 4881
  Tumor:Kidney uptake ratio: 126 ± 76.0
  Tumor:Muscle uptake ratio: 11627 ± 7865
  Tumor:Salivary gland uptake ratio: 3324 ± 2257
LNCaP tumor-bearing mice [3]; 120 h post-injection, listed as [177Lu]Lu-PSMA-617
  Tumor uptake: 12.25 ± 5.519 %IA/g
LNCaP tumor-bearing mice [4]; mouse, in vivo
  Excretion pathway (SPECT imaging): excreted mainly via the renal pathway
LNCaP tumor-bearing mice [4]; ~37 MBq injected
  Tumor size change in SPECT/CT images: tumors shrank from Day 1 to Day 5
